# Data taken from US20060069132A1, “Azolecarboxamide herbicides” (priority 2004, published 2006).
# How the values were obtained:
# [1] = test system: wild oat (AVEFA); experiment: Test J Compounds 2 and 6 alone and in combination with other herbicides, foliage spray; assay type: in vivo, Avena fatua; design: key: 0 = no effect, 100 = complete control; conditions: applied alone
# From the text: (§1) Colby's Equation was used to calculate the expected additive herbicidal effect of the mixtures of Compound 6 with Harmony® Extra (i.e. a 2:1 mixture by weight of thifensulfuron-methyl and tribenuron-methyl). […]
# (§2) Seeds of test plants consisting of barnyardgrass (ECHCG; Echinochloa crus-galli (L.) Beauv.), blackgrass (ALOMY; Alopecurus myosuroides Huds.), Surinam grass (BRADC; Urochloa decumbens (Staph) R. D. Webster, previously named Brachiaria decumbens Stapf), cocklebur (XANST, Xanthium strumarium L.), corn (ZEAMD, Zea mays L. cv. ‘Pioneer 33G26’), large crabgrass (DIGSA, Digitaria sanguinalis (L.) Scop.), giant foxtail (SETFA, Setaria faberi Herrm.), lambsquarters (CHEAL, Chenopodium album L.), morningglory (IPOCO, Ipomoea coccinea L.), pigweed (AMARE, Amaranthus retroflexus L.), velvetleaf (ABUTH, Abutilon theophrasti Medik.) wheat (TRZAS, Triticum aestivum L. cv. ‘Recital’) and wild oat (AVEFA, Avena fatua L.) were planted in Redi-Earth® planting medium (Scotts Company, 14111 Scottslawn Road, Marysville, Ohio 43041) comprising spaghnum peat moss and vermiculite. […] Also listed in Table J are the expected effects for the mixtures calculated using Colby's Equation.
# [2] = test system: lambsquarters (CHEAL); experiment: as above; assay type: in vivo, Chenopodium album; design: key: % herbicidal effect (observed); conditions: applied alone
# From the text: as §1, §2
# [3] = test system: corn (ZEAMD); experiment: as above; assay type: in vivo, Zea mays; design: key: percentage herbicidal effect (observed); conditions: applied alone
# From the text: as §1, §2
# [4] = test system: spotted spurge; experiment: Test E pre-/postemergence herbicide test; assay type: in vivo, Euphorbia maculata
# From the text: Seeds of plant species selected from bipinnate beggarticks (Bidens bipinnata L.), hairy beggarticks (Bidens radiata Thuill.), bermudagrass (Cynodon dactylon (L.) Pers.), Surinam grass (Urochloa decumbens (Staph) R. D. Webster, previously named Brachiaria decumbens Stapf), large crabgrass (Digitaria sanguinalis (L.) Scop.), green foxtail (Setaria viridis (L.) P. Beauv.), goosegrass (Eleusine indica (L.) Gaertn.), johnsongrass (Sorghum halepense (L.) Pers.), kochia (Kochia scoparia (L.) Schrad.), pitted morningglory (Ipomoea lacunosa L.), purple nutsedge (Cyperus rotundus L.), common ragweed (Ambrosia elatior L.), mustard (Brassica nigra (L.) W. D. J. Koch), guineagrass (Panicum maximum Jacq.), dallisgrass (Paspalum dilatatum Poir.), barnyardgrass (Echinochloa crus-galli (L). P. Beauv.), southern sandbur (Cenchrus echinatus L.), common sowthistle (Sonchus oleraceous L.), prickly sida (Sida spinosa L.), Italian ryegrass (Lolium multiflorum Lam.), common purslane (Portulaca oleracea L.), broadleaf signalgrass (Brachiaria platyphylla (Griseb.) Nash), common groundsel (Senecio vulgaris L.), common chickweed (Stellaria media (L.) Vill/Cyr.), tropical spiderwort (Commelina benghalensis L.), annual bluegrass (Poa annua L.), downy bromegrass (Bromus tectorum L.), itchgrass (Rottboellia cochinchinensis (L.) L.f.), quackgrass (Elytrigia repens (L.) Nevski), Canada horseweed (Erigeron Canadensis L.), field bindweed (Convolvulus arvensis L.), spotted spurge (Euphorbia maculata L.), common mallow (Malva sylvestris (=s silvestris) L.), and Russian thistle (Salsola kali L. ssp. Ruthenica (Iljin) Soo) were planted and treated preemergence with test chemicals formulated in a non-phytotoxic solvent mixture which included a surfactant.
# At the same time, plants selected from these weed species were treated with postemergence applications of some of the test chemicals formulated in the same manner. […] Treated plants and controls were maintained in a greenhouse for 12 to 14 days, after which time all species were compared to controls and visually evaluated. […]
smiles,measurement,setting,value
"CCn1nc(C(C)(C)C)cc1C(=O)Nc1cc(C(=O)N(C)C)ccc1F [Compound 6, N-[5-[(dimethylamino)carbonyl]-2-fluorophenyl]-3-(1,1-dimethylethyl)-1-ethyl-1H-pyrazole-5-carboxamide]",AVEFA Obsd.,[1]; 62 g a.i./ha,10
same,AVEFA Obsd.,[1]; 125 g a.i./ha,25
same,CHEAL Obsd.,[2]; 62 g a.i./ha,43
same,CHEAL Obsd.,[2]; 125 g a.i./ha,68
same,ZEAMD Obsd.,[3]; 62 g a.i./ha,22
same,ZEAMD Obsd.,[3]; 125 g a.i./ha,28
CCNC(=O)c1ccnc(NC(=O)c2cc(C(C)(C)C)nn2CC)c1 [Compound 152],"Plant response rating, Spurge, Spotted","[4]; Postemergence, 500 g ai/ha, scale 0 to 100",95
same,"Plant response rating, Spurge, Spotted","[4]; Preemergence, 125 g ai/ha, scale 0 to 100",100
same,"Plant response rating, Spurge, Spotted","[4]; Preemergence, 500 g ai/ha, scale 0 (no effect) to 100 (complete control)",100
